The values that follow come from US8669271B2 (Boehringer Ingelheim International GmbH, priority 2010, dated 2014).

Structures are written as SMILES. pEC50: −log10 of the molar value.

This assay addresses T1, human GPR119 (Homo sapiens, UniProt Q8TDV5).
T1 construct: expression vector for human GPR119 cDNA (Acc. No. NP_848566); expressed in transfected cells
T1 sequence (Q8TDV5 1-335): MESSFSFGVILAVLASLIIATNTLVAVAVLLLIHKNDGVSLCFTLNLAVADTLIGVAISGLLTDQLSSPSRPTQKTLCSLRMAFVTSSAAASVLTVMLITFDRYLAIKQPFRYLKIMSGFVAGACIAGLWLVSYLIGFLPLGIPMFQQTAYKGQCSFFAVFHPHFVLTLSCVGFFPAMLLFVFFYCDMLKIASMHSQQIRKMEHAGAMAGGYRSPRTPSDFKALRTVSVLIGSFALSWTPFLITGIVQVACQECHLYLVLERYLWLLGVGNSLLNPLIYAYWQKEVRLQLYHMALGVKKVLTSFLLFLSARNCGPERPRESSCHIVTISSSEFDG
In words: AlphaScreen cAMP assay in Min-6/hGPR119 cells (activation of GPR119, intracellular cAMP). It counts as cell-based. To be noted: MIN6 cells stably transfected with human GPR119; cAMP by AlphaScreen after 45 minutes incubation at room temperature. The protocol:
The compounds of formula I according to the invention modulate the activity of the G-protein-coupled receptor GPR119. The effect of the compounds on the activation of GPR119 and on the stimulation of intracellular cAMP concentration is determined using the AlphaScreen cAMP Assay Kit (Cat.No.#6760625R) made by PerkinElmer.
MIN6 cells [Miyazaki J et al. Endocrinology. 1990 July; 127(1):126-32] are stably transfected with an expression vector for human GPR119 cDNA (Acc. No. NP_848566). Min-6/hGPR119 cells are cultured in DMEM, 10% FBS, 50 μM β-mercaptoethanol, 0.3 mg/mL Geniticin, 2 mM GlutaMAX at 37° C. 5% CO2. For the assay, the cells are seeded in Optiplates (white, 384-well, 160W— barcoded, TC, sterile with lid, Cat.No.#6007688 (Perkin Elmer); 10000 cells/well; 50 μl). The plates covered with lids are then incubated for 24 hours at 37° C./5% CO2. After the medium is aspirated from the wells completely, 10 μl of the test compound are added, the compounds are diluted using stimulating buffer (140 mM NaCl, 3.6 mM KCl, 0.5 mM NaH2PO4, 0.5 mM MgSO4, 1.5 mM CaCl2, 10 mM Hepes, 5 mM NaHCO3; pH 7.4. 0.5 mM IBMX and 0.1% BSA, the final DMSO concentration is 1%). After 45 minutes incubation at room temperature (approx. 20° C.), the cAMP concentrations are determined using the AlphaScreen cAMP Assay Kit (Cat.No.#6760625R from PerkinElmer).
In general terms: Bead proximity is the source of the signal in Alpha formats.
The term pEC50 denotes −log10 of the EC50, conventionally taken in molar units. `CC(C)(C)OC(=O)N1CCC(C2Cc3cc(-c4ccc(CS(C)(=O)=O)cc4F)ncc3O2)CC1` (single isomer, unassigned) [Example 75] gave a pEC50 of 7.85. Compound `CC(C)(C)OC(=O)N1CCC(C2Cc3cc(-c4ccc(CS(C)(=O)=O)cc4F)ncc3O2)CC1` (single isomer, unassigned) [Example 76] gave a negative logarithm of the EC50 (pEC50) of 7.26. For `CC(C)OC(=O)N1CCC(C2Cc3cc(-c4ccc(S(C)(=O)=O)cc4)ccc3O2)CC1` (stereo not drawn) [Example 1, 4-[5-(4-Methanesulfonyl-phenyl)-2,3-dihydro-benzofuran-2-yl]-piperidine-1-carboxylic acid isopropyl ester], the pEC50 is 7.49. The compound `CC(C)OC(=O)N1CCC(C2Cc3cc(-c4ccc(S(C)(=O)=O)nc4)ccc3O2)CC1` (stereo not drawn) [Example 2, 4-[5-(6-Methanesulfonyl-pyridin-3-yl)-2,3-dihydro-benzofuran-2-yl]-piperidine-1-carboxylic acid isopropyl ester] had a negative logarithm of the EC50 (pEC50) of 7.15. Compared with the last compound, the pEC50 is 0.34 log units lower. `CC(C)OC(=O)N1CCC(C2Cc3cc(-c4ccc(S(C)(=O)=O)cn4)ccc3O2)CC1` (stereo not drawn) [Example 3, 4-[5-(5-Methanesulfonyl-pyridin-2-yl)-2,3-dihydro-benzofuran-2-yl]-piperidine-1-carboxylic acid isopropyl ester] gave a pEC50 of 7.41. This pEC50 is 0.26 log units higher than that of the compound before. In turn, `CC(C)OC(=O)N1CCC(C2Cc3cc(-c4ccc(C#N)cc4)ccc3O2)CC1` (stereo not drawn) [Example 4, 4-[5-(4-Cyano-phenyl)-2,3-dihydro-benzofuran-2-yl]-piperidine-1-carboxylic acid isopropyl ester] showed a negative logarithm of the EC50 (pEC50) of 6.70.

The compound `CS(=O)(=O)c1ccc(-c2ccc3c(c2)CC(C2CCN(C(=O)OC4CCC4)CC2)O3)cc1` (stereo not drawn) [Example 5, 4-[5-(4-Methanesulfonyl-phenyl)-2,3-dihydro-benzofuran-2-yl]-piperidine-1-carboxylic acid cyclobutyl ester] had a pEC50 of 7.74. For the compound `Cc1cc(C#N)cnc1-c1ccc2c(c1)CC(C1CCN(C(=O)OC(C)C)CC1)O2` (stereo not drawn) [Example 8, 4-[5-(5-Cyano-3-methyl-pyridin-2-yl)-2,3-dihydro-benzofuran-2-yl]-piperidine-1-carboxylic acid isopropyl ester], the pEC50 was 6.64. As to `Cc1cc(-c2ccc3c(c2)CC(C2CCN(C(=O)OC(C)C)CC2)O3)cnc1C#N` (stereo not drawn) [Example 9, 4-[5-(6-Cyano-5-methyl-pyridin-3-yl)-2,3-dihydro-benzofuran-2-yl]-piperidine-1-carboxylic acid isopropyl ester], the pEC50 was 6.36. The compound `Cc1cc(S(C)(=O)=O)ccc1-c1ccc2c(c1)CC(C1CCN(C(=O)OC(C)C)CC1)O2` (stereo not drawn) [Example 10, 4-[5-(4-Methanesulfonyl-2-methyl-phenyl)-2,3-dihydro-benzofuran-2-yl]-piperidine-1-carboxylic acid isopropyl ester] had a negative-log EC50 (pEC50) of 6.92.

On to `Cc1cc([S+](C)[O-])ccc1-c1ccc2c(c1)CC(C1CCN(C(=O)OC(C)C)CC1)O2` (stereo not drawn) [Example 11, 4-[5-(4-Methanesulfinyl-2-methyl-phenyl)-2,3-dihydro-benzofuran-2-yl]-piperidine-1-carboxylic acid isopropyl ester], for which the pEC50 is 6.52. The same measure for `CC(C)(C)OC(=O)N1CCC(C2Cc3nc(-c4ccc(S(C)(=O)=O)cc4)cnc3O2)CC1` (stereo not drawn) [Example 12, 4-[2-(4-Methanesulfonyl-phenyl)-6,7-dihydro-furo[2,3-b]byrazin-6-yl]-piperidine-1-carboxylic acid tert-butyl ester]: 6.60; for `CC(C)(C)OC(=O)N1CCC(C2Cc3nc(-c4ccc(S(C)(=O)=O)cc4)ccc3O2)CC1` (stereo not drawn) [Example 13, 4-[5-(4-Methanesulfonyl-phenyl)-2,3-dihydro-furo[3,2-b]pyridin-2-yl]-piperidine-1-carboxylic acid tert-butyl ester]: 6.67. Compound `CC(C)(C)OC(=O)N1CCC(C2Cc3cc(-c4ccc(S(C)(=O)=O)cn4)ccc3O2)CC1` (stereo not drawn) [Example 14, 4-[5-(5-Methanesulfonyl-pyridin-2-yl)-2,3-dihydro-benzofuran-2-yl]-piperidine-1-carboxylic acid tert-butyl ester] gave a negative-log EC50 (pEC50) of 7.89. `CC(C)(C)OC(=O)N1CCC(C2Cc3cc(-c4ccc(S(C)(=O)=O)cc4)ncc3O2)CC1` (stereo not drawn) [Example 15, 4-[5-(4-Methanesulfonyl-phenyl)-2,3-dihydro-furo[2,3-c]pyridin-2-yl]-piperidine-1-carboxylic acid tert-butyl ester]: the pEC50 was 8.05.

Compound `CC(C)OC(=O)N1CCC(C2Cc3cc(-c4cncnc4)ccc3O2)CC1` (stereo not drawn) [Example 16, 4-(5-Pyrimidin-5-yl-2,3-dihydro-benzofuran-2-yl)-piperidine-1-carboxylic acid isopropyl ester] gave a pEC50 of 6.73. As to `CC1(OC(=O)N2CCC(C3Cc4cc(-c5ccc(S(C)(=O)=O)cc5)ccc4O3)CC2)CC1` (stereo not drawn) [Example 17, 4-[5-(4-Methanesulfonyl-phenyl)-2,3-dihydro-benzofuran-2-yl]-piperidine-1-carboxylic acid 1-methyl-cyclopropyl ester], the pEC50 is 7.34. Compared with the last compound, the pEC50 is 0.61 log units higher. Take `Cc1nc(S(C)(=O)=O)ccc1-c1ccc2c(c1)CC(C1CCN(C(=O)OC(C)C)CC1)O2` (stereo not drawn) [Example 18, 4-[5-(6-Methanesulfonyl-2-methyl-pyridin-3-yl)-2,3-dihydro-benzofuran-2-yl]-piperidine-1-carboxylic acid isopropyl ester]: the pEC50 was 6.83. The same measure for `Cc1cc(S(C)(=O)=O)ncc1-c1ccc2c(c1)CC(C1CCN(C(=O)OC(C)C)CC1)O2` (stereo not drawn) [Example 19, 4-[5-(6-Methanesulfonyl-4-methyl-pyridin-3-yl)-2,3-dihydro-benzofuran-2-yl]-piperidine-1-carboxylic acid isopropyl ester]: 6.00.

`CC1(OC(=O)N2CCC(C3Cc4cc(-c5ccc(S(C)(=O)=O)cc5)ncc4O3)CC2)CC1` (stereo not drawn) [Example 20, 4-[5-(4-Methanesulfonyl-phenyl)-2,3-dihydro-furo[2,3-c]pyridin-2-yl]-piperidine-1-carboxylic acid 1-methyl-cyclopropyl ester]: the negative-log EC50 (pEC50) was 7.77. Consider `CC(C)(C)OC(=O)N1CCC(C2Cc3cc(-c4cnco4)ccc3O2)CC1` (stereo not drawn) [Example 21, 4-(5-Oxazol-5-yl-2,3-dihydro-benzofuran-2-yl)-piperidine-1-carboxylic acid tert-butyl ester], for which the pEC50 is 7.11. `CC(C)(C)OC(=O)N1CCC(C2Cc3nc(-c4ccc(S(C)(=O)=O)cc4)ncc3O2)CC1` (stereo not drawn) [Example 22, 4-[2-(4-Methanesulfonyl-phenyl)-6,7-dihydro-furo[3,2-d]pyrimidin-6-yl]-piperidine-1-carboxylic acid tert-butyl ester] had a negative logarithm of the EC50 (pEC50) of 7.35.

`CC(C)(C)OC(=O)N1CCC(C2Cc3cc(-c4ccc(S(C)(=O)=O)cc4F)ncc3O2)CC1` (stereo not drawn) [Example 23, 4-[5-(2-Fluoro-4-methanesulfonyl-phenyl)-2,3-dihydro-furo[2,3-c]pyridin-2-yl]-piperidine-1-carboxylic acid tert-butyl ester] showed a pEC50 of 7.74.

Regarding `CS(=O)(=O)c1ccc(-c2cc3c(cn2)OC(C2CCN(C(=O)OC4CCC4)CC2)C3)cc1` (stereo not drawn) [Example 24, 4-[5-(4-Methanesulfonyl-phenyl)-2,3-dihydro-furo[2,3-c]pyridin-2-yl]-piperidine-1-carboxylic acid cyclobutyl ester], the pEC50 is 7.77. The pEC50 values of the last two compounds are within 0.2 log units of each other.

The compound `CC(C)(C)OC(=O)N1CCC(C2Cc3cc(-c4ccc(C(N)=O)cc4F)ncc3O2)CC1` (stereo not drawn) [Example 26, 4-[5-(4-Carbamoyl-2-fluoro-phenyl)-2,3-dihydro-furo[2,3-c]pyridin-2-yl]-piperidine-1-carboxylic acid tert-butyl ester] had a negative logarithm of the EC50 (pEC50) of 7.06.

Consider `CNC(=O)c1ccc(-c2cc3c(cn2)OC(C2CCN(C(=O)OC(C)(C)C)CC2)C3)c(F)c1` (stereo not drawn) [Example 27, 4-[5-(2-Fluoro-4-methylcarbamoyl-phenyl)-2,3-dihydro-furo[2,3-c]pyridin-2-yl]-piperidine-1-carboxylic acid tert-butyl ester], for which the pEC50 was 7.62. Turning to `CC(C)(C)OC(=O)N1CCC(C2Cc3cc(-c4ccc(C#N)c(F)c4)ncc3O2)CC1` (stereo not drawn) [Example 28, 4-[5-(4-Cyano-3-fluoro-phenyl)-2,3-dihydro-furo[2,3-c]hyridin-2-yl]-piperidine-1-carboxylic acid tert-butyl ester], the pEC50 was 7.64.
